These results are taken from patent US20050197350A1, “Novel quinoline, tetrahydroquinazoline, and pyrimidine derivatives and methods of treatment related to the use thereof” (TAISHO PHARMACEUTICAL CO., LTD., priority 2003, published 2005).

The test system of the assay is MCH receptors. Kind of assay: MCH receptor activity class (method not given). To be noted: activity class 1-3: percent of control at 10^-7 M or IC50.

Consider `CN(C)c1cc(N[C@H]2CC[C@@H](CNC(=O)OCC(C)(C)C)CC2)nc2ccccc12` [compound 1560], for which the class is on record as 3 (Class 3 The value of percent of control at 10^−7 M was more than 60% or the value of IC50 was more than 200 nM.).
Turning to `COc1cc(COC(=O)NC[C@H]2CC[C@@H](Nc3cc(N(C)C)c4ccccc4n3)CC2)c([N+](=O)[O-])cc1OC` [compound 1561], the class is on record as 3 (Class 3 The value of percent of control at 10^−7 M was more than 60% or the value of IC50 was more than 200 nM.).
The figure for `CN(C)c1cc(N[C@H]2CC[C@@H](CNC(=O)Oc3cccc(C(F)(F)F)c3)CC2)nc2ccccc12` [compound 1562] is 3 (Class 3 The value of percent of control at 10^−7 M was more than 60% or the value of IC50 was more than 200 nM.); for `CN(C)c1cc(N[C@H]2CC[C@@H](CNC(=O)Oc3ccc(Br)cc3)CC2)nc2ccccc12` [compound 1563] it is 3 (Class 3 The value of percent of control at 10^−7 M was more than 60% or the value of IC50 was more than 200 nM.).
As for `COc1ccccc1OC(=O)NC[C@H]1CC[C@@H](Nc2cc(N(C)C)c3ccccc3n2)CC1` [compound 1564], the figure is 3 (Class 3 The value of percent of control at 10^−7 M was more than 60% or the value of IC50 was more than 200 nM.); as for `COCCOC(=O)NC[C@H]1CC[C@@H](Nc2cc(N(C)C)c3ccccc3n2)CC1` [compound 1565], 3 (Class 3 The value of percent of control at 10^−7 M was more than 60% or the value of IC50 was more than 200 nM.); as for `CCCCCCCCOC(=O)NC[C@H]1CC[C@@H](Nc2cc(N(C)C)c3ccccc3n2)CC1` [compound 1566], 3 (Class 3 The value of percent of control at 10^−7 M was more than 60% or the value of IC50 was more than 200 nM.).
The figure for `CCOC(=O)NC[C@H]1CC[C@@H](Nc2cc(N(C)C)c3ccccc3n2)CC1` [compound 1567] is 3 (Class 3 The value of percent of control at 10^−7 M was more than 60% or the value of IC50 was more than 200 nM.); for `CN(C)c1cc(N[C@H]2CC[C@@H](CNC(=O)OCc3ccc([N+](=O)[O-])cc3)CC2)nc2ccccc12` [compound 1568] it is 3 (Class 3 The value of percent of control at 10^−7 M was more than 60% or the value of IC50 was more than 200 nM.); for `CN(C)c1cc(N[C@H]2CC[C@@H](CNC(=O)Oc3ccc4ccccc4c3)CC2)nc2ccccc12` [compound 1569] it is 3 (Class 3 The value of percent of control at 10^−7 M was more than 60% or the value of IC50 was more than 200 nM.).
`C=CCOC(=O)NC[C@H]1CC[C@@H](Nc2cc(N(C)C)c3ccccc3n2)CC1` [compound 1570]: the class is recorded as 3 (Class 3 The value of percent of control at 10^−7 M was more than 60% or the value of IC50 was more than 200 nM.).
`CN(C)c1cc(N[C@H]2CC[C@@H](CNC(=O)OCc3ccccc3)CC2)nc2ccccc12` [compound 1571]: the class is listed as 3 (Class 3 The value of percent of control at 10^−7 M was more than 60% or the value of IC50 was more than 200 nM.).
In the case of `CN(C)c1cc(N[C@H]2CC[C@@H](CNC(=O)Oc3ccccc3)CC2)nc2ccccc12` [compound 1572], the class is on record as 3 (Class 3 The value of percent of control at 10^−7 M was more than 60% or the value of IC50 was more than 200 nM.).
As for `CC(C)[C@@H]1CC[C@@H](C)C[C@H]1OC(=O)NC[C@H]1CC[C@@H](Nc2cc(N(C)C)c3ccccc3n2)CC1` [compound 1573], the figure is 3 (Class 3 The value of percent of control at 10^−7 M was more than 60% or the value of IC50 was more than 200 nM.); as for `Cc1ccc(OC(=O)NC[C@H]2CC[C@@H](Nc3cc(N(C)C)c4ccccc4n3)CC2)cc1` [compound 1574], 3 (Class 3 The value of percent of control at 10^−7 M was more than 60% or the value of IC50 was more than 200 nM.); as for `COC(=O)NC[C@H]1CC[C@@H](Nc2cc(N(C)C)c3ccccc3n2)CC1` [compound 1575], 3 (Class 3 The value of percent of control at 10^−7 M was more than 60% or the value of IC50 was more than 200 nM.).
As for `CN(C)c1cc(N[C@H]2CC[C@@H](CNC(=O)OCc3ccccc3Cl)CC2)nc2ccccc12` [compound 1576], the figure is 3 (Class 3 The value of percent of control at 10^−7 M was more than 60% or the value of IC50 was more than 200 nM.); as for `CN(C)c1cc(N[C@H]2CC[C@@H](CNC(=O)OCC3c4ccccc4-c4ccccc43)CC2)nc2ccccc12` [compound 1577], 3 (Class 3 The value of percent of control at 10^−7 M was more than 60% or the value of IC50 was more than 200 nM.).
As for `CN(C)c1cc(N[C@H]2CC[C@@H](CNC(=O)OCC(Cl)(Cl)Cl)CC2)nc2ccccc12` [compound 1578], the figure is 3 (Class 3 The value of percent of control at 10^−7 M was more than 60% or the value of IC50 was more than 200 nM.); as for `CN(C)c1nc(N[C@H]2CC[C@@H](NC(=O)OCCOCc3ccccc3)CC2)nc2c1CCCC2` [compound 1579], 3 (Class 3 The value of percent of control at 10^−7 M was more than 60% or the value of IC50 was more than 200 nM.); as for `CN(C)c1nc(N[C@H]2CC[C@@H](NC(=O)OCC(C)(C)C)CC2)nc2c1CCCC2` [compound 1580], 3 (Class 3 The value of percent of control at 10^−7 M was more than 60% or the value of IC50 was more than 200 nM.).
For `COc1cc(COC(=O)NC2CCC(Nc3nc4c(c(N(C)C)n3)CCCC4)CC2)c([N+](=O)[O-])cc1OC` (centres unmarked) [compound 1581, [4-(4-Dimethylamino-5,6,7,8-tetrahydro-quinazolin-2-ylamino)-cyclohexy]-carbamic acid 4,5-dimethoxy-2-nitro-benzyl ester], the class is listed as 2 (Class 2: The value of percent of control at 10^−7 M was from 40% to 60% or the value of IC′50 was from 50 nM to 200 nM.).
The figure for `CN(C)c1nc(N[C@H]2CC[C@@H](NC(=O)Oc3cccc(C(F)(F)F)c3)CC2)nc2c1CCCC2` [compound 1582] is 3 (Class 3 The value of percent of control at 10^−7 M was more than 60% or the value of IC50 was more than 200 nM.).
The figure for `CN(C)c1nc(N[C@H]2CC[C@@H](NC(=O)Oc3ccc(Br)cc3)CC2)nc2c1CCCC2` [compound 1583] is 3 (Class 3 The value of percent of control at 10^−7 M was more than 60% or the value of IC50 was more than 200 nM.); for `COc1ccccc1OC(=O)N[C@H]1CC[C@@H](Nc2nc3c(c(N(C)C)n2)CCCC3)CC1` [compound 1584] it is 3 (Class 3 The value of percent of control at 10^−7 M was more than 60% or the value of IC50 was more than 200 nM.).
The figure for `COCCOC(=O)N[C@H]1CC[C@@H](Nc2nc3c(c(N(C)C)n2)CCCC3)CC1` [compound 1585] is 3 (Class 3 The value of percent of control at 10^−7 M was more than 60% or the value of IC50 was more than 200 nM.); for `CCCCCCCCOC(=O)N[C@H]1CC[C@@H](Nc2nc3c(c(N(C)C)n2)CCCC3)CC1` [compound 1586] it is 3 (Class 3 The value of percent of control at 10^−7 M was more than 60% or the value of IC50 was more than 200 nM.).
Regarding `CCOC(=O)N[C@H]1CC[C@@H](Nc2nc3c(c(N(C)C)n2)CCCC3)CC1` [compound 1587], the class is listed as 3 (Class 3 The value of percent of control at 10^−7 M was more than 60% or the value of IC50 was more than 200 nM.).
With `CN(C)c1nc(N[C@H]2CC[C@@H](NC(=O)OCc3ccc([N+](=O)[O-])cc3)CC2)nc2c1CCCC2` [compound 1588], the class was 3 (Class 3 The value of percent of control at 10^−7 M was more than 60% or the value of IC50 was more than 200 nM.).
